Assay [1] in a line: Inhibition of His-tagged SUMO1/SUMO E1 /GST-tagged Aos1/Uba2/His-tagged Ubc9 (unknown origin)-mediated recombinant His/T7-tagged RanGAP1-C-terminal fragment SUMOylation assessed as change in chemical shift perturbation by 1H,15N HSQC NMR spectroscopy analysis. Also on record: species or system Homo sapiens.
Assay [2] is described as follows: Inhibition of His-tagged SUMO1/SUMO E1 /His-tagged Ubc9 (unknown origin)-mediated SUMOylation using FL-AR as substrate incubated for 90 mins in presence of ATP by Western blot analysis. Set-up: species or system Homo sapiens.
Assay [3] is described as follows: Inhibition of His-tagged SUMO1/GST-tagged Aos1/Uba2/His-tagged Ubc9 (unknown origin)-mediated recombinant His/T7-tagged RanGAP1-C-terminal fragment SUMOylation expressed in Escherichia coli BL21 (DE3) assessed as reduction in Ubc9-SUMO level in presence of ATP by SDS-PAGE based immunoblotting analysis. Also on record: species or system Homo sapiens. (In general: In western blotting, separated proteins are transferred to a membrane and probed.)

The nature of assay [4]: Inhibition of His-tagged SUMO/SAE /Ubc9 (unknown origin)-mediated recombinant 6His-tagged RanGAP1 SUMOylation in presence of ATP by HTRF analysis. Set-up: species or system Homo sapiens. For orientation: In TR-FRET formats the signal depends on donor and acceptor labels being close together.
Assay [5] can be described thus: Inhibition of SUMO E1 (unknown origin). Also on record: species or system Homo sapiens.
The nature of assay [6]: Inhibition of Plasmodium falciparum SENP1 using QTGG-AFC as substrate by fluorescence based analysis.
Assay [7] is described as follows: Inhibition of His-tagged SUMO1/SUMO E1 /GST-tagged Aos1/Uba2/His-tagged Ubc9 (unknown origin)-mediated recombinant His/T7-tagged RanGAP1-C2-terminal fragment SUMOylation in presence of ATP by SDS-PAGE based immunoblotting analysis. Also on record: species or system Homo sapiens.
Assay [8] in a line: Inhibition of His-tagged SUMO1/SUMO E1 /GST-tagged Aos1/Uba2/His-tagged Ubc9 (unknown origin)-mediated recombinant His/T7-tagged RanGAP1-C-terminal fragment SUMOylation expressed in Escherichia coli BL21 (DE3) assessed as reduction in Ubc9-SUMO level measured upto 2 hrs in presence of ATP by fluorescence polarization analysis. Set-up: species or system Homo sapiens. Background: Fluorescence polarisation rises when a labelled molecule tumbles more slowly, as on binding a larger partner.

Another assay has as its target T1, NEDD8 activating enzyme (Homo sapiens, UniProt Q8TBC4).
T1 sequence (Q8TBC4 whole entry): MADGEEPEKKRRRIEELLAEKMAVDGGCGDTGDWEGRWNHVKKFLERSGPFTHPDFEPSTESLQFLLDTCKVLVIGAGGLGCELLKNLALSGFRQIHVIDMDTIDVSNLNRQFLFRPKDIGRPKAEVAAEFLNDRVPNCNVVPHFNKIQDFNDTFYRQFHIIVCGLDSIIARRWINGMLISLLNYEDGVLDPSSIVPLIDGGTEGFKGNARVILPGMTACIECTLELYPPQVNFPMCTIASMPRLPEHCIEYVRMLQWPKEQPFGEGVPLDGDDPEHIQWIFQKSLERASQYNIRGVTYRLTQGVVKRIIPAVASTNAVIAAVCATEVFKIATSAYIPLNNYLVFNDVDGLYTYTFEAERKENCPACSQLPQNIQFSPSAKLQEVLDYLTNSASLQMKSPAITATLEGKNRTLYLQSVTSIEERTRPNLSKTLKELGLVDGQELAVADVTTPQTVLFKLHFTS
T1 sequence (Q13564 whole entry): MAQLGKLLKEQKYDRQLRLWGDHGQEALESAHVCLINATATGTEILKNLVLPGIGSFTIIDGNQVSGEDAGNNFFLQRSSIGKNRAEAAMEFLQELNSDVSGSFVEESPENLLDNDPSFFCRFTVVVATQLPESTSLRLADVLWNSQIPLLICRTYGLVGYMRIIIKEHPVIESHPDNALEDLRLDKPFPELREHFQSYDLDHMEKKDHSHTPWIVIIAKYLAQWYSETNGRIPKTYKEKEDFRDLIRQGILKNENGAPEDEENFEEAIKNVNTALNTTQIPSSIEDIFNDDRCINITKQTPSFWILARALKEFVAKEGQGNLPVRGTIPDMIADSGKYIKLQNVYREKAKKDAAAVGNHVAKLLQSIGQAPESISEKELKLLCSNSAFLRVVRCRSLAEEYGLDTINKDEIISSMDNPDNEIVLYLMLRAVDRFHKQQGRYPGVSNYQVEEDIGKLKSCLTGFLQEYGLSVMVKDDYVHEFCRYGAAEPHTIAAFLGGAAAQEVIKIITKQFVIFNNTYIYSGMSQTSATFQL
Put plainly: Inhibition of NAE (unknown origin). It is filed as protein-complex assay.

A short description of assay [9]: Inhibition of UAE (unknown origin). Also on record: species or system Homo sapiens.
The nature of assay [10]: Inhibition of His-tagged SUMO1/SUMO E1 /His-tagged Ubc9 (unknown origin)-mediated […] SUMOylation using FL-AR as substrate incubated for 90 mins in presence of ATP by peptide microarray-based fluorescence assay. Set-up: species or system Homo sapiens.
The next assay concerns LNCaP. The assay is described as follows: Antiproliferative activity against androgen-sensitive human LNCaP cells assessed as cell growth inhibition incubated for 48 hrs by MTT assay. The format is functional, cell-based.
Another assay deals with PC-3. The assay is described as follows: Antiproliferative activity against human PC-3 cells assessed as cell growth inhibition incubated for 48 hrs by MTT assay. The format is functional, cell-based. The conditions noted are these: PC-3, 48 h.

As a reminder, the IC50 is the concentration needed to halve the response being measured.

Bounds are passed on as bounds.

Regarding `Oc1ccccc1-c1ccccc1O`, the IC50 in assay [1] came to 5800 µM.

As for `O=c1cc(-c2ccc(O)c(O)c2O)oc2ccccc12`, the half-inhibitory concentration (IC50) in assay [2] turned out to be 6 µM. `C[C@@H]1O[C@@H](O[C@@H]2C[C@H](c3ccc4c(c3O)C(=O)C3=C(C4=O)[C@@]4(O[C@H]5CC[C@H](O)[C@H](C)O5)C(=O)C[C@](C)(O)C[C@@]4(O)C=C3)O[C@H](C)[C@H]2O)CC[C@@H]1O[C@H]1C[C@@H](O)[C@H](O)[C@@H](C)O1`: the IC50 in assay [3] is 11.7 µM. In the case of `COC(=O)C1=C(C(=O)OC)[C@@]2([C@@H](Cc3ccc(C)cc3)Nc3ccccc3)C=C[C@@H]1O2`, the half-maximal inhibitory concentration (IC50) in assay [4] is 0.2 µM. `NS(=O)(=O)OC[C@@H]1C[C@@H](n2ccc3c(NC4CCc5ccccc54)ncnc32)C[C@@H]1O` (stereo partly drawn) gave an IC50 in assay [5] of 8.2 µM. For `O=C(O)CN(NC(=O)c1ccc(CNC(=O)c2cccc(C(=O)O)c2)cc1)C(=O)[C@H]1O[C@@H]1C(=O)C(Cc1cccc2ccccc12)Cc1cccc2ccccc12`, in [6], the concentration for half-maximal inhibition (IC50) was determined as 17.9 µM. Consider `CCOC(=O)CCc1ccc(-c2ccccc2O)c(O)c1`, for which, in [1], the IC50 amounted to 3000 µM. Regarding `CO/C(=C/C(=O)O)[C@H]1c2cc3ccc(-c4ccc5cc6c(c(O)c5c4O)C(=O)C[C@@](C)(O)[C@H]6/C(=C\C(=O)O)OC)c(O)c3c(O)c2C(=O)C[C@@]1(C)O`, the concentration for half-maximal inhibition (IC50) in [7] was determined as 4.4 µM. For the molecule `COc1ccc(NC(=O)[C@H](CCCN)Nc2cc(C)nc(NCCc3cccs3)n2)cc1`, the IC50 in assay [8] was 12.5 µM. In the case of `NS(=O)(=O)OC[C@@H]1C[C@@H](Nc2ncncc2C(=O)c2ccn(Cc3cccc(Br)c3)n2)C[C@@H]1O`, the figures for the concentration for half-maximal inhibition (IC50) (in assay [5]; against NEDD8 activating enzyme; in assay [9]) were 0.003 µM, 32 µM and over 100 µM, respectively. The molecule `O=C(O)c1cccc(C(=O)NCc2ccc(C(=O)NNC(=O)[C@H]3O[C@@H]3C(=O)C(Cc3cccc4ccccc34)Cc3cccc4ccccc34)cc2)c1` showed an IC50 in [6] of 16.2 µM. Turning to `c1coc(-c2cc(CNc3ncnc4sc5cnccc5c34)no2)c1`, the half-maximal inhibitory concentration (IC50) in assay [10] stood at 74 µM. On to `CCCCCCCCCCCCCCCc1cccc(O)c1C(=O)O` [ANACARDIC ACID], for which the IC50 in [3] is 2.2 µM. In the case of `CCCCCC/C=C\CCCCCCCc1cccc(O)c1C(=O)O` [GINGKOLIC ACID], the IC50 in assay [3] was 3 µM.

Regarding `CC(C)[C@]12O[C@H]1[C@@H]1O[C@]13[C@]1(O[C@H]1C[C@H]1C4=C(CC[C@@]13C)C(=O)OC4)[C@@H]2O` [TRIPTOLIDE], the half-inhibitory concentration (IC50) came to 0.0097 µM with LNCaP and 0.0203 µM in the assay on PC-3.

Source of the values: ChEMBL document CHEMBL5113384, “Small-molecule inhibitors targeting small ubiquitin-like modifier pathway for the treatment of cancers and other diseases” (Eur J Med Chem, 2022).
